Experimental data published in the kinase profiling compilation of Christmann-Franck et al. (2016).

Assays:
Experiment in all cases: KINOMEscan competition binding
[1] = molecular target: PLK2 (human) (UniProt Q9NYY3)
[2] = molecular target: MAPKAPK2 (human) (UniProt P49137)
[3] = tested on: KIT (human), P10721 [V559D]
[4] = tested on: PIK3CA (human), P42336 [E545K]
[5] = molecular target: EPHB3 (human) (UniProt P54753)
[6] = molecular target: LIMK1 (human) (UniProt P53667)
[7] = molecular target: WEE1 (human) (UniProt P30291)
[8] = molecular target: MUSK (human) (UniProt O15146)
MUSK (human), sequence (O15146 whole entry, looked up): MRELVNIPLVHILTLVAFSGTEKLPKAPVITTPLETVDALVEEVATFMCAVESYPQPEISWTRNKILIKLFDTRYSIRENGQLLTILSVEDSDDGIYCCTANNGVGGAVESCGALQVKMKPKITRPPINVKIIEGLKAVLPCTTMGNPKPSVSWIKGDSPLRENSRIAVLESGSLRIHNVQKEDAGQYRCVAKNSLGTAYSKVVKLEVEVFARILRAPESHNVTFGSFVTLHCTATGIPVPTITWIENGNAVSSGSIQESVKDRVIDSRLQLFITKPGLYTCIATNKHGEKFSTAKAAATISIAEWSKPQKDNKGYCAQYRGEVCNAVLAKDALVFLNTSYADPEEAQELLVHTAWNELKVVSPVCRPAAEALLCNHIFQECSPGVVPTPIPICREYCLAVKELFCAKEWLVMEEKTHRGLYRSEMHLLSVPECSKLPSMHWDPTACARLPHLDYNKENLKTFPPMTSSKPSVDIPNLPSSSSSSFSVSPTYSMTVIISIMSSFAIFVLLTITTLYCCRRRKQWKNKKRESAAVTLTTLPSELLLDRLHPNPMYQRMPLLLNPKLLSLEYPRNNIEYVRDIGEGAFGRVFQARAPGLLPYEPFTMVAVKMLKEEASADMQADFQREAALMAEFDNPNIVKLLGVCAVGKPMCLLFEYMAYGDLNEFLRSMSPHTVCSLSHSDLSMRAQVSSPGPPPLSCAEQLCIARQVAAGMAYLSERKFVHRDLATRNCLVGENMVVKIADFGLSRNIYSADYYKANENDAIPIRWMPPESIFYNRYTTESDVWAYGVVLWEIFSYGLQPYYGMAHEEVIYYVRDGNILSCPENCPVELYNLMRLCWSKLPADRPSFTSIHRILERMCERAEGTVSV

[9] = molecular target: RAF1 (human) (UniProt P04049)
[10] = molecular target: TYK2 JH2 pseudokinase (human) (UniProt P29597)
[11] = molecular target: TYRO3 (human) (UniProt Q06418)
[12] = molecular target: MAP3K2 (human) (UniProt Q9Y2U5)
[13] = molecular target: ERBB4 (human) (UniProt Q15303)
[14] = molecular target: JAK1 JH2 pseudokinase (human) (UniProt P23458)
[15] = molecular target: AKT3 (human) (UniProt Q9Y243)
[16] = tested on: EGFR (human), P00533 [T790M/L858R]
[17] = molecular target: SRPK1 (human) (UniProt Q96SB4)
[18] = molecular target: FES (human) (UniProt P07332)
FES (human), sequence (P07332 whole entry, looked up): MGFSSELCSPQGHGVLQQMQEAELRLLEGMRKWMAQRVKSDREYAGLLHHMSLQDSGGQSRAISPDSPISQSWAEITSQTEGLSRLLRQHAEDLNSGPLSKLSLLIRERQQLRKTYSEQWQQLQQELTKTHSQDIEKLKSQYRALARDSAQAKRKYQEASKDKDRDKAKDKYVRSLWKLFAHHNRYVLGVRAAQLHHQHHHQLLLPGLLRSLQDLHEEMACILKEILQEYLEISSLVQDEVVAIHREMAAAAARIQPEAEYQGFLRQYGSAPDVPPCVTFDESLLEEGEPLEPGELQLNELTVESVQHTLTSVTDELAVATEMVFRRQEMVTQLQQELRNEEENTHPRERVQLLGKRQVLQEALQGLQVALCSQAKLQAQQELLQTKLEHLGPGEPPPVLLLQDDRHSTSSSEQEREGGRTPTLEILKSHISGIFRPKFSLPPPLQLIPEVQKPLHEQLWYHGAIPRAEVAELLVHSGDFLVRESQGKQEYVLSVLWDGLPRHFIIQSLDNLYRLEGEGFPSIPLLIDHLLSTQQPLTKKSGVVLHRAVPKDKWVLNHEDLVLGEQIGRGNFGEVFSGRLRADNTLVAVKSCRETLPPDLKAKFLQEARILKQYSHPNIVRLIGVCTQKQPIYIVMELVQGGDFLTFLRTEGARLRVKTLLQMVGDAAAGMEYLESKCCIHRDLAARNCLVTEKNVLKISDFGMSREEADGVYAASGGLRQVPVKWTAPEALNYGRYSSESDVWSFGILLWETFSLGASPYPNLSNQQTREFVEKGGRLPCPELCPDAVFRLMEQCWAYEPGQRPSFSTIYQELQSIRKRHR

[19] = molecular target: PRKACB (human) (UniProt P22694)
[20] = molecular target: BRSK1 (human) (UniProt Q8TDC3)
BRSK1 (human), sequence (Q8TDC3 whole entry, looked up): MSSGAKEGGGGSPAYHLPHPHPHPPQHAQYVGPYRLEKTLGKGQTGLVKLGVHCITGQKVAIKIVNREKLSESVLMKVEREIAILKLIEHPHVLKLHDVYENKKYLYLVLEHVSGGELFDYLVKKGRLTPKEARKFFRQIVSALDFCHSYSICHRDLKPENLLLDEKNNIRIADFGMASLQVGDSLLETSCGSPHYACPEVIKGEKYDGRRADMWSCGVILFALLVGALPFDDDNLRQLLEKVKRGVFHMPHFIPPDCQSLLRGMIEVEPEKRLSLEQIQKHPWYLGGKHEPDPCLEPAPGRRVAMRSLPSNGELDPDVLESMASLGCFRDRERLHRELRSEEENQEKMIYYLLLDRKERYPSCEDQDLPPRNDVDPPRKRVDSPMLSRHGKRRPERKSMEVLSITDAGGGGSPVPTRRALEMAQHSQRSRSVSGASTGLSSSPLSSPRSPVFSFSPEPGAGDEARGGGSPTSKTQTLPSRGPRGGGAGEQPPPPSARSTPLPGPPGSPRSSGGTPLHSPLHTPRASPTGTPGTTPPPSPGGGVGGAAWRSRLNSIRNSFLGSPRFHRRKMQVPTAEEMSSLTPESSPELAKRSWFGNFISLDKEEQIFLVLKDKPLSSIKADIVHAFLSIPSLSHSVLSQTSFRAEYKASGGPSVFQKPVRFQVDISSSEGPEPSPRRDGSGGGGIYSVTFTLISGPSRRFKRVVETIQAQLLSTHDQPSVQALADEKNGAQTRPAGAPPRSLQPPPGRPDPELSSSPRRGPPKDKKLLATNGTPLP

[21] = molecular target: TGFBR1 (human) (UniProt P36897)
[22] = molecular target: YES1 (human) (UniProt P07947)
[23] = molecular target: MST4 (human) (UniProt Q9P289)
[24] = molecular target: NEK1 (human) (UniProt Q96PY6)
[25] = molecular target: CDK3 (human) (UniProt Q00526)
[26] = molecular target: EPHA8 (human) (UniProt P29322)
[27] = molecular target: PDGFRB (human) (UniProt P09619)
[28] = molecular target: NEK5 (human) (UniProt Q6P3R8)
[29] = molecular target: FER (human) (UniProt P16591)
[30] = molecular target: IRAK3 (human) (UniProt Q9Y616)
IRAK3 (human), sequence (Q9Y616 whole entry, looked up): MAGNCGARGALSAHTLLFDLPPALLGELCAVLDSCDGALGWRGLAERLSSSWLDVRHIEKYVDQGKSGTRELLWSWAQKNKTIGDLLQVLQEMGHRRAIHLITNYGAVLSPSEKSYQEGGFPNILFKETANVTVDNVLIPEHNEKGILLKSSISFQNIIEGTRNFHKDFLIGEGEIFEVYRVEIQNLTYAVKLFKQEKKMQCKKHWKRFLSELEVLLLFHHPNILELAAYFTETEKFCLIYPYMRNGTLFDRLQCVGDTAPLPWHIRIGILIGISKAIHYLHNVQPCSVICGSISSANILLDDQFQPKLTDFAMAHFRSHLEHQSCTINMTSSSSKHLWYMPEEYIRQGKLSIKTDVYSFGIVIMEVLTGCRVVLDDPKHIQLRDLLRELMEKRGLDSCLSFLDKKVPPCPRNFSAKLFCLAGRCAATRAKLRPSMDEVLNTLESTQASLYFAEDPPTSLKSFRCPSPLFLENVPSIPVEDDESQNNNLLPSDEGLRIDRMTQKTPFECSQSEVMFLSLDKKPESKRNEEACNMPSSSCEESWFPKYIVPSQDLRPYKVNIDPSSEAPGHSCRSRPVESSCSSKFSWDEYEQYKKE

[31] = molecular target: TLK1 (human) (UniProt Q9UKI8)
[32] = molecular target: BLK (human) (UniProt P51451)
[33] = molecular target: GRK4 (human) (UniProt P32298)
GRK4 (human), sequence (P32298 whole entry, looked up): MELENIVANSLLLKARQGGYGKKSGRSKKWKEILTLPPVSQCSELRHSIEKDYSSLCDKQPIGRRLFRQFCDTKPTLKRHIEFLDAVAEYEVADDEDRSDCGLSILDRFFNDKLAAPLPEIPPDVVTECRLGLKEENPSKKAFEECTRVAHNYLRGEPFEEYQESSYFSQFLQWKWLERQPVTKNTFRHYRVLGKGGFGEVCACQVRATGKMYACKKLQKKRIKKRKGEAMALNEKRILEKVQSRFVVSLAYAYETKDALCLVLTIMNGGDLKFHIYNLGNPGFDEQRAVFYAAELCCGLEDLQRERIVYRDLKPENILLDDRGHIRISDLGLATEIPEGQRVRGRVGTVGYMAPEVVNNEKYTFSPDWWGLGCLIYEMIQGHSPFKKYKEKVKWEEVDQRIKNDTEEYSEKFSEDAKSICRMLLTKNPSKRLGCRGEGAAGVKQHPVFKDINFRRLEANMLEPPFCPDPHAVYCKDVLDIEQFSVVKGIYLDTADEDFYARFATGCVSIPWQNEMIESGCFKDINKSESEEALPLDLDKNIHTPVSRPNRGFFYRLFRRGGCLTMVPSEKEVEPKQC

[34] = molecular target: CAMKK2 (human) (UniProt Q96RR4)
[35] = molecular target: AXL (human) (UniProt P30530)
[36] = molecular target: FRK (human) (UniProt P42685)
[37] = molecular target: STK17A (human) (UniProt Q9UEE5)
[38] = molecular target: CAMK1D (human) (UniProt Q8IU85)
[39] = molecular target: MAST1 (human) (UniProt Q9Y2H9)
[40] = molecular target: ICK (human) (UniProt Q9UPZ9)
[41] = molecular target: MYLK3 (human) (UniProt Q32MK0)
[42] = tested on: FLT3 (human), P36888 [D835H]
[43] = molecular target: NUAK2 (human) (UniProt Q9H093)
NUAK2 (human), sequence (Q9H093 whole entry, looked up): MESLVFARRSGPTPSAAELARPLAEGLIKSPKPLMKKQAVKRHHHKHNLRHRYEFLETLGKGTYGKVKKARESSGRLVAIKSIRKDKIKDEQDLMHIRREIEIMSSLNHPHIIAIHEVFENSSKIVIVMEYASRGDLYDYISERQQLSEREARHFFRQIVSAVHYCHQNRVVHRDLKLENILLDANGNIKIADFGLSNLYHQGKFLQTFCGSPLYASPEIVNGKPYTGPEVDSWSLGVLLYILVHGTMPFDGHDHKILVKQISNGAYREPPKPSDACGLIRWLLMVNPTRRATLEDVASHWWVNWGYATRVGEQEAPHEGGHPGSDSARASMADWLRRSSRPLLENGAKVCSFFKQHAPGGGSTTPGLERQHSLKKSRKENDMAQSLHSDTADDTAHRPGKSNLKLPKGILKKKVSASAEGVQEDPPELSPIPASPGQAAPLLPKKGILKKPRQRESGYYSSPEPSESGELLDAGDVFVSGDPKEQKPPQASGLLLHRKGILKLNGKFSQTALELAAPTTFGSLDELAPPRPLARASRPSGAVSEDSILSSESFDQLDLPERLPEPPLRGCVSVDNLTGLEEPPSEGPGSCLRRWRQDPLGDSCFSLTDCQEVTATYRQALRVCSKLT

LIMK1 (human), sequence (P53667 whole entry, looked up): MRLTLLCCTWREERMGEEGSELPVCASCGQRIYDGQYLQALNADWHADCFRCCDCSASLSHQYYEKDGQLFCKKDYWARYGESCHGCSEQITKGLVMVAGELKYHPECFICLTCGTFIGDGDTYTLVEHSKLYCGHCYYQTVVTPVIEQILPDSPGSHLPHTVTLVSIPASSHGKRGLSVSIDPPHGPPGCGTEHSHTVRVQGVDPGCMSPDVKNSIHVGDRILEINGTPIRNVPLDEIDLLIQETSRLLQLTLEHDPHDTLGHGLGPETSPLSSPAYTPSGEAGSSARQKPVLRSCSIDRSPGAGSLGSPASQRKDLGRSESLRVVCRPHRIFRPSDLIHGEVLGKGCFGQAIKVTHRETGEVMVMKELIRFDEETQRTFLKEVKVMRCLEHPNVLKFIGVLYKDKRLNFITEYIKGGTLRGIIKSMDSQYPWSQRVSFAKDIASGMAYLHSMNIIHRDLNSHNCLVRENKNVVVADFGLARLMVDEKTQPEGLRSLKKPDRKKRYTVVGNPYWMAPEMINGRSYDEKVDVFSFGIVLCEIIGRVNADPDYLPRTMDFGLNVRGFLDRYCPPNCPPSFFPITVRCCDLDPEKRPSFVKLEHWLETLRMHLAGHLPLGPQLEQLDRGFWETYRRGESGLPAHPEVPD

CN(C)C/C=C/C(=O)Nc1cccc(C(=O)Nc2ccc(Nc3nccc(-c4c(-c5ccccc5)nn5ccccc45)n3)cc2)c1
kinase still bound, per cent of control ([1]; compound 1.0 µM): 81%
kinase still bound, per cent of control ([2]; compound 1.0 µM): 84%
kinase still bound, per cent of control ([3]; compound 1.0 µM): 0.6%
kinase still bound, per cent of control ([4]; compound 1.0 µM): 100%
kinase still bound, per cent of control ([5]; compound 1.0 µM): 86%
kinase still bound, per cent of control ([6]; compound 1.0 µM): 100%
kinase still bound, per cent of control ([7]; compound 1.0 µM): 100%
kinase still bound, per cent of control ([8]; compound 1.0 µM): 100%
kinase still bound, per cent of control ([9]; compound 1.0 µM): 83%
kinase still bound, per cent of control ([10]; compound 1.0 µM): 100%
kinase still bound, per cent of control ([11]; compound 1.0 µM): 81%
kinase still bound, per cent of control ([12]; compound 1.0 µM): 52%
kinase still bound, per cent of control ([13]; compound 1.0 µM): 5.4%
kinase still bound, per cent of control ([14]; compound 1.0 µM): 79%
kinase still bound, per cent of control ([15]; compound 1.0 µM): 80%
kinase still bound, per cent of control ([16]; compound 1.0 µM): 36%
kinase still bound, per cent of control ([17]; compound 1.0 µM): 90%
kinase still bound, per cent of control ([18]; compound 1.0 µM): 100%
kinase still bound, per cent of control ([19]; compound 1.0 µM): 83%
kinase still bound, per cent of control ([20]; compound 1.0 µM): 86%
kinase still bound, per cent of control ([21]; compound 1.0 µM): 12%
kinase still bound, per cent of control ([22]; compound 1.0 µM): 12%
kinase still bound, per cent of control ([23]; compound 1.0 µM): 85%
kinase still bound, per cent of control ([24]; compound 1.0 µM): 100%
kinase still bound, per cent of control ([25]; compound 1.0 µM): 100%
kinase still bound, per cent of control ([26]; compound 1.0 µM): 39%
kinase still bound, per cent of control ([27]; compound 1.0 µM): 0.2%
kinase still bound, per cent of control ([28]; compound 1.0 µM): 98%
kinase still bound, per cent of control ([29]; compound 1.0 µM): 87%
kinase still bound, per cent of control ([30]; compound 1.0 µM): 64%
kinase still bound, per cent of control ([31]; compound 1.0 µM): 67%
kinase still bound, per cent of control ([32]; compound 1.0 µM): 5.9%
kinase still bound, per cent of control ([33]; compound 1.0 µM): 93%
kinase still bound, per cent of control ([34]; compound 1.0 µM): 100%
kinase still bound, per cent of control ([35]; compound 1.0 µM): 58%
kinase still bound, per cent of control ([36]; compound 1.0 µM): 32%
kinase still bound, per cent of control ([37]; compound 1.0 µM): 93%
kinase still bound, per cent of control ([38]; compound 1.0 µM): 100%
kinase still bound, per cent of control ([39]; compound 1.0 µM): 99%
kinase still bound, per cent of control ([40]; compound 1.0 µM): 100%
kinase still bound, per cent of control ([41]; compound 1.0 µM): 91%
kinase still bound, per cent of control ([42]; compound 1.0 µM): 13%
kinase still bound, per cent of control ([43]; compound 1.0 µM): 89%

Cc1cc(NC(=O)c2cccc(NC(=O)/C=C/CN(C)C)c2)ccc1Nc1nccc(-c2cccnc2)n1
kinase still bound, per cent of control ([1]; compound 1.0 µM): 79%
kinase still bound, per cent of control ([2]; compound 1.0 µM): 100%
kinase still bound, per cent of control ([3]; compound 1.0 µM): 0.95%
kinase still bound, per cent of control ([4]; compound 1.0 µM): 100%
kinase still bound, per cent of control ([5]; compound 1.0 µM): 100%
kinase still bound, per cent of control ([6]; compound 1.0 µM): 74%
kinase still bound, per cent of control ([7]; compound 1.0 µM): 100%
kinase still bound, per cent of control ([8]; compound 1.0 µM): 100%
kinase still bound, per cent of control ([9]; compound 1.0 µM): 93%
kinase still bound, per cent of control ([10]; compound 1.0 µM): 80%
kinase still bound, per cent of control ([11]; compound 1.0 µM): 85%
kinase still bound, per cent of control ([12]; compound 1.0 µM): 100%
kinase still bound, per cent of control ([13]; compound 1.0 µM): 96%
kinase still bound, per cent of control ([14]; compound 1.0 µM): 91%
kinase still bound, per cent of control ([15]; compound 1.0 µM): 100%
kinase still bound, per cent of control ([16]; compound 1.0 µM): 81%
kinase still bound, per cent of control ([17]; compound 1.0 µM): 99%
kinase still bound, per cent of control ([18]; compound 1.0 µM): 89%
kinase still bound, per cent of control ([19]; compound 1.0 µM): 76%
kinase still bound, per cent of control ([20]; compound 1.0 µM): 100%
kinase still bound, per cent of control ([21]; compound 1.0 µM): 89%
kinase still bound, per cent of control ([22]; compound 1.0 µM): 86%
kinase still bound, per cent of control ([23]; compound 1.0 µM): 82%
kinase still bound, per cent of control ([24]; compound 1.0 µM): 81%
kinase still bound, per cent of control ([25]; compound 1.0 µM): 100%
kinase still bound, per cent of control ([26]; compound 1.0 µM): 100%
kinase still bound, per cent of control ([27]; compound 1.0 µM): 4.7%
kinase still bound, per cent of control ([28]; compound 1.0 µM): 92%
kinase still bound, per cent of control ([29]; compound 1.0 µM): 100%
kinase still bound, per cent of control ([30]; compound 1.0 µM): 85%
kinase still bound, per cent of control ([31]; compound 1.0 µM): 98%
kinase still bound, per cent of control ([32]; compound 1.0 µM): 65%
kinase still bound, per cent of control ([33]; compound 1.0 µM): 96%
kinase still bound, per cent of control ([34]; compound 1.0 µM): 93%
kinase still bound, per cent of control ([35]; compound 1.0 µM): 77%
kinase still bound, per cent of control ([36]; compound 1.0 µM): 100%
kinase still bound, per cent of control ([37]; compound 1.0 µM): 24%
kinase still bound, per cent of control ([38]; compound 1.0 µM): 100%
kinase still bound, per cent of control ([39]; compound 1.0 µM): 97%
kinase still bound, per cent of control ([40]; compound 1.0 µM): 92%
kinase still bound, per cent of control ([41]; compound 1.0 µM): 100%
kinase still bound, per cent of control ([42]; compound 1.0 µM): 82%
kinase still bound, per cent of control ([43]; compound 1.0 µM): 70%

Cc1ccc(NC(=O)c2ccc(NC(=O)/C=C/CN(C)C)cc2)cc1Nc1nccc(-c2cccnc2)n1
kinase still bound, per cent of control ([1]; compound 10.0 µM): 34%
kinase still bound, per cent of control ([2]; compound 10.0 µM): 100%
kinase still bound, per cent of control ([3]; compound 10.0 µM): 0%
kinase still bound, per cent of control ([4]; compound 10.0 µM): 96%
kinase still bound, per cent of control ([5]; compound 10.0 µM): 100%
kinase still bound, per cent of control ([6]; compound 10.0 µM): 85%
kinase still bound, per cent of control ([7]; compound 10.0 µM): 100%
kinase still bound, per cent of control ([8]; compound 10.0 µM): 99%
kinase still bound, per cent of control ([9]; compound 10.0 µM): 55%
kinase still bound, per cent of control ([10]; compound 10.0 µM): 14%
kinase still bound, per cent of control ([11]; compound 10.0 µM): 100%
kinase still bound, per cent of control ([12]; compound 10.0 µM): 84%
kinase still bound, per cent of control ([13]; compound 10.0 µM): 100%
kinase still bound, per cent of control ([14]; compound 10.0 µM): 5.1%
kinase still bound, per cent of control ([15]; compound 10.0 µM): 100%
kinase still bound, per cent of control ([16]; compound 10.0 µM): 100%
kinase still bound, per cent of control ([17]; compound 10.0 µM): 74%
kinase still bound, per cent of control ([18]; compound 10.0 µM): 100%
kinase still bound, per cent of control ([19]; compound 10.0 µM): 100%
kinase still bound, per cent of control ([20]; compound 10.0 µM): 53%
kinase still bound, per cent of control ([21]; compound 10.0 µM): 100%
kinase still bound, per cent of control ([22]; compound 10.0 µM): 100%
kinase still bound, per cent of control ([23]; compound 10.0 µM): 53%
kinase still bound, per cent of control ([24]; compound 10.0 µM): 100%
kinase still bound, per cent of control ([25]; compound 10.0 µM): 100%
kinase still bound, per cent of control ([26]; compound 10.0 µM): 81%
kinase still bound, per cent of control ([27]; compound 10.0 µM): 0%
kinase still bound, per cent of control ([28]; compound 10.0 µM): 51%
kinase still bound, per cent of control ([29]; compound 10.0 µM): 90%
kinase still bound, per cent of control ([30]; compound 10.0 µM): 28%
kinase still bound, per cent of control ([31]; compound 10.0 µM): 74%
kinase still bound, per cent of control ([32]; compound 10.0 µM): 60%
kinase still bound, per cent of control ([33]; compound 10.0 µM): 88%
kinase still bound, per cent of control ([34]; compound 10.0 µM): 56%
kinase still bound, per cent of control ([35]; compound 10.0 µM): 90%
kinase still bound, per cent of control ([36]; compound 10.0 µM): 86%
kinase still bound, per cent of control ([37]; compound 10.0 µM): 1.6%
kinase still bound, per cent of control ([38]; compound 10.0 µM): 85%
kinase still bound, per cent of control ([39]; compound 10.0 µM): 89%
kinase still bound, per cent of control ([40]; compound 10.0 µM): 82%
kinase still bound, per cent of control ([41]; compound 10.0 µM): 97%
kinase still bound, per cent of control ([42]; compound 10.0 µM): 66%
kinase still bound, per cent of control ([43]; compound 10.0 µM): 69%
